Laboratory results reported in patent US20230398153A1, “A METHOD FOR EFFICIENT MICROGLIA REPLACEMENT” (The Board of Trustees of the Leland Stanford Junior …, priority 2020, published 2023).

Key:
[1] = test system: myeloid cells of the spinal cord; experiment: Microglia replacement in the spinal cord after BMT+PLX protocol; format: in vivo, mouse; settings: PLX5622 treated group
Excerpt: FIG. 21. Efficient microglia replacement in the spinal cord following our BMT+PLX protocol.
Many CNS diseases affect primarily the spinal cord. To evaluate whether our microglia replacement protocol is truly CNS-wide we characterized the spinal cords following a replacement as described above. Indeed, when using GFP-expressing donor cells we were able to identify a high and robust chimerism of GFP-positive, transplanted cell among the myeloid cells of the spinal cord (FIG. 21),

endogenous microglia = experiment: Direct intracerebral injection of GFP bone marrow cells with or without PLX5622 pre-treatment; format: in vivo, mouse; settings: 21-day PLX5622 pre-treatment; 14 days post IC injection
Protocol: FIG. 1. Microglia replacement after bone marrow transplantation is a slow, inefficient and variable process. (A) Schematic overview of bone marrow transplantation (HSCT). Recipient mice were received intraperitoneal (IP) injection of busulfan for 5 days at 25 mg/kg/day (i.e. 125 mg/kg total dose) and then transplanted with GFP-expressing bone marrow cells via intravenous (IV) injection. Donor chimerism in peripheral blood (PB) and brain myeloid cells was analyzed at the indicated time points. (B and C) Donor chimerism in PB leukocytes (CD45+ cells) and brain myeloid cells (CD45+CD11b+ cells) was analyzed by flow cytometry at the indicated time point. […] GFP chimerism in PB leukocytes (B) (Mean±SEM, n=5-20/time point, ***p<0.001, ns: not significant, ANOVA). GFP chimerism in brain myeloid cells (C) (Mean±SEM, n=5/time point, *p<0.05, **p<0.01, ns: not significant, ANOVA). (D) Flow cytometry analysis of GFP+bone marrow cells 14 days after direct intracerebral (IC) injection with (bottom) and without (top) PLX5622 pre-treatment of recipient mice. […] (F) Quantification of transplanted GFP+bone marrow cells in coronal brain sections. […] Horizontal bars represent mean values (n=3/group, 3 brain slices/animal were quantified. **p<0.01, ***p<0.001, Student's t-test). […] (H) Microglia chimerism was analyzed by flow cytometry 14 days post IV injection. […]

SMILES: COc1ncc(F)cc1CNc1ccc(Cc2c[nH]c3ncc(C)cc23)c(F)n1 [PLX5622]
- myeloid cells GFP+ in total spinal cord by flow cytometry [1]: 90%
- fate of bone marrow cells injected into the brain (endogenous microglia): adopted microglia-like morphologies, expressed the microglial marker Iba-1, were more numerous, and dispersed wider into the brain parenchyma
